Source: the supplement of paper PMC12669032

Tests used:
Test in all cases: growth AUC relative to DMSO control (fraction); higher = more growth (less inhibition)
Conditions in all cases: 24 h
Clostridium difficile = tested on: Clostridium difficile
Experimental: (§1)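 Validation screen: 11 independently purchased pesticides tested on 8 gut bacterial strains at 2.5–320 µM in mGAM, anaerobic, 37 °C, 24 h. Growth AUC normalised to DMSO controls, mean of 3 independent experiments.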

Lactobacillus gasseri = tested on: Lactobacillus gasseri
Experimental: as §1

Streptococcus salivarius = tested on: Streptococcus salivarius
Experimental: as §1

Escherichia coli IAI1 = tested on: Escherichia coli IAI1
Experimental: as §1

Roseburia intestinalis = tested on: Roseburia intestinalis
Experimental: as §1

Eubacterium rectale = tested on: Eubacterium rectale
Experimental: as §1

Bacteroides uniformis = tested on: Bacteroides uniformis
Experimental: as §1

[1] = tested on: Parabacteroides distasonis
Experimental: as §1

O=C(Oc1ccccc1)n1c(C(F)(F)F)nc2cc(Cl)c(Cl)cc21 [FENAZAFLOR]
growth AUC
Conditions	Bacteroides uniformis	Clostridium difficile	Escherichia coli IAI1	Eubacterium rectale	Lactobacillus gasseri	Roseburia intestinalis	Streptococcus salivarius	[1]
2.5 µM	0.972	0.824	0.97	0.987	1.06	1.05	1.07	0.939
5 µM	0.914	0.854	0.837	0.875	0.99	0.968	0.876	0.6
10 µM	0.686	0.595	0.679	0.642	0.837	0.887	0.658	0.314
20 µM	0.492	0.705	0.617	0.407	0.448	0.582	0.513	0.174
40 µM	0.171	0.00756	0.383	0.255	0.168	0.22	0.0266	0.0387
80 µM	0.00285	0.0273	0.00144	0.106	0.0839	0.0682	0.0113	0.0173
160 µM	0.00332	0.0114	0.00384	0.0493	0.0514	0.0676	0.00976	0.0144
320 µM	0.0184	0.0253	0.0222	0.106	0.0326	0.0375	0.0373	0.0614

C=CCOC(Cn1ccnc1)c1ccc(Cl)cc1Cl.O=S(=O)(O)O (stereo unspecified) [IMAZALIL SULFATE]
growth AUC
Conditions	Bacteroides uniformis	Clostridium difficile	Escherichia coli IAI1	Eubacterium rectale	Lactobacillus gasseri	Roseburia intestinalis	Streptococcus salivarius	[1]
2.5 µM	1.04	1.02	0.998	0.622	1.07	0.943	1.05	1.02
5 µM	1	0.962	0.975	0.322	0.958	0.906	1.01	0.948
10 µM	1.01	0.944	0.956	0.0607	0.976	0.861	0.963	0.856
20 µM	0.971	1.01	0.96	0.0382	0.92	0.459	0.978	0.922
40 µM	0.976	0.915	0.942	0.0278	0.946	0.0225	0.961	0.732
80 µM	0.928	0.797	0.961	0.014	0.881	0.0276	0.944	0.587
160 µM	0.836	0.515	0.879	0.0363	0.788	0.0196	0.999	0.145
320 µM	0.413	0.219	0.776	0.0159	0.414	0.0118	0.705	0.0186

COC(=O)N(OC)c1ccccc1COc1ccn(-c2ccc(Cl)cc2)n1 [PYRACLOSTROBIN]
growth AUC
Conditions	Bacteroides uniformis	Clostridium difficile	Escherichia coli IAI1	Eubacterium rectale	Lactobacillus gasseri	Roseburia intestinalis	Streptococcus salivarius	[1]
2.5 µM	1.01	1.03	1.02	1.17	1.06	0.955	1.11	0.922
5 µM	0.994	1.01	1.02	1.12	1.01	0.923	1.09	0.798
10 µM	0.955	1	1.01	1.18	0.997	0.957	1.07	0.705
20 µM	0.988	1.01	1.01	1.16	0.955	0.859	1.12	0.626
40 µM	0.926	1.03	1.01	1.18	0.989	0.975	1.08	0.401
80 µM	0.914	1.04	0.999	1.13	0.914	0.919	1.02	0.26
